According to ChEMBL document CHEMBL2375269, “Triazolothiadiazoles and triazolothiadiazines--biologically attractive scaffolds” (Eur J Med Chem, 2013):
Values after ≈ are worked out from the molar mass of the structure shown.

Columns and labels:
[1] = system: Radical scavenging activity; assay: Antioxidant activity of the compound assessed as DPPH radical scavenging activity after 30 mins by spectrophotometry; format: functional
[2] = Inhibition of acetylcholine esterase (unknown origin) using acetylthiocholine as substrate incubated for 15 mins prior to substrate addition measured after 5 mins by spectrophotometry; parameters: species or system Homo sapiens
[3] = Inhibition of urease (unknown origin) assessed as ammonia synthesis after 30 mins by microplate reader analysis; parameters: species or system Homo sapiens
[4] = target: Intestinal-type alkaline phosphatase (Bos taurus, UniProt P19111); assay: Inhibition of calf intestinal alkaline phosphatase using p-NPP as substrate incubated for 10 mins prior to substrate addition measured after 30 mins by spectrophotometry
Intestinal-type alkaline phosphatase, sequence (P19111 whole entry): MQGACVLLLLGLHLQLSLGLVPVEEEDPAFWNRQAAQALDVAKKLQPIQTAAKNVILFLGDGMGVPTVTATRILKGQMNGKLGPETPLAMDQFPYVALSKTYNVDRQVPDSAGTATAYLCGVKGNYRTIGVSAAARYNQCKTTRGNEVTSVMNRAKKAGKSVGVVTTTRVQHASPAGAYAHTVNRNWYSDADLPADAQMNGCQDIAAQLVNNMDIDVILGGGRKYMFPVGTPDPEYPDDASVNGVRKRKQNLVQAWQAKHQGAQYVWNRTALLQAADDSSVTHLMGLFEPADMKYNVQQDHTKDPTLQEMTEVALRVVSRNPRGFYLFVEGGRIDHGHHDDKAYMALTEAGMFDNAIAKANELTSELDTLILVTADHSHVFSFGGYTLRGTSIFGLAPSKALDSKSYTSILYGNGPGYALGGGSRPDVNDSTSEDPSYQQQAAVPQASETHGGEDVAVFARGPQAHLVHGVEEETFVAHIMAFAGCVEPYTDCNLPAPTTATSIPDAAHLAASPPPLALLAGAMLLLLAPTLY

Bacillus subtilis = assay: Antibacterial activity against Bacillus subtilis after 24 hrs by serial tube dilution method; format: functional
Shigella flexneri = assay: Antibacterial activity against Shigella flexneri after 24 hrs by serial tube dilution method; format: functional
Staphylococcus aureus = assay: Antibacterial activity against Staphylococcus aureus after 24 hrs by serial tube dilution method; format: functional
Escherichia coli = assay: Antibacterial activity against Escherichia coli after 24 hrs by serial tube dilution method; format: functional

| Compound | IC50 [2] | further results |
| --- | --- | --- |
| Fc1cccc(Cc2nnc3sc(-c4ccoc4)nn23)c1 | 1780 nM | IC50 [1]: 31500 nM |
| COc1ccc(-c2nnc3sc(-c4ccoc4)nn23)cc1 | 1780 nM | IC50 [3]: 764 nM; Ki [3]: 450 nM |
| Brc1ccc(-c2nnc3sc(-c4ccoc4)nn23)cc1 | 1780 nM | IC50 [4]: 61 nM |
| Brc1cccc(-c2nnc3sc(-c4ccoc4)nn23)c1 | 344 nM |  |
| Fc1cnc(-c2nn3c(-c4ccccc4Cl)nnc3s2)c(F)c1 |  | MIC (Bacillus subtilis): 0.156 µg/mL (≈ 0.446 µM); MIC (Shigella flexneri): 0.156 µg/mL (≈ 0.446 µM); MIC (Staphylococcus aureus): 0.156 µg/mL (≈ 0.446 µM); MIC (Escherichia coli): 0.156 µg/mL (≈ 0.446 µM) |
| Clc1ccccc1-c1nnc2sc(-c3ccoc3)nn12 | 1780 nM |  |
| Clc1ccc(-c2nnc3sc(-c4ccoc4)nn23)cc1 | 1780 nM |  |
| Fc1ccccc1Cc1nnc2sc(-c3ccoc3)nn12 | 1780 nM |  |
| Fc1ccc(Cc2nnc3sc(-c4ccoc4)nn23)cc1 | 1780 nM |  |
| COc1ccccc1-c1nnc2sc(-c3ccoc3)nn12 | 1780 nM |  |
| COc1cccc(-c2nnc3sc(-c4ccoc4)nn23)c1 | 1780 nM |  |
| COc1cccc(Cc2nnc3sc(-c4ccc(Cl)cc4)nn23)c1 |  | IC50 [1]: 9040 nM |
| CCCOC(=O)c1cc(O)c(O)c(O)c1 [PROPYL GALLATE] |  | IC50 [1]: 40800 nM |
